For experiment [1], the target named is T1, hENPP2 (UniProtKB/SwissProt Q13822) (Homo sapiens (Human), UniProt Q13822). The experiment is described as follows: hENPP2 biochemical assay, LPC as substrate. Conditions: LPC (palmitoyl 16:0) as substrate. In a few lines:
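Human ENPP2 in 50 mM Tris-HCl pH 8.5, 500 mM NaCl, 5 mM KCl, 10 mM CaCl2, 0.1% fatty-acid-free BSA, reacted 30 min at 37 °C with LPC 16:0 (150 µM solution added 1:1). Released choline measured via choline oxidase/peroxidase/TOOS/4-aminoantipyrine quinoneimine dye at 555 nm; IC50 reported.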

Experiment [2] deals with T1, hENPP2. The experiment is described as follows: fluorescent hENPP2 biochemical assay, FS-3 as substrate. Conditions: read-out: FS3-IC50. In a few lines:
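hENPP2 in 50 mM Tris-HCl pH 8.0, 250 mM NaCl, 5 mM KCl, 1 mM MgCl2, 1 mM CaCl2, 0.1% fatty-acid-free BSA, preincubated with compound 30 min at room temperature. The 0.75 μM FS-3 solution was added and the mixture incubated 30 min at 30° C. Fluorescence (ex 485/em 520 nm) gives IC50.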

Another experiment deals with LPA 18:2 in human plasma. The experiment is described as follows: Human whole blood (plasma) LPA assay. It is filed as biochemical. The note with it: 2 h at 37 C, LPA 18:2 by LC-MS/MS. How it is done:
Blood is collected from healthy volunteers who gave informed consent into sodium heparin tubes by venipuncture, then gently inverted several times to prevent clotting. Tubes are centrifuged at 3000 rpm for 15 min at 4° C. then plasma is stored at −80° C. Compounds are diluted in DMSO in concentration dependent manner then 0.5 μL are dispensed into 96-well plate placed in ice. Plasma is defrosted on ice then 49.5 μL of plasma are added into the well containing 0.5 μL of compound (1% DMSO final). Plates are covered with a lid in polypropylene and incubated at +37° C., 5% CO2, for 2 h under gentle shaking (except controls which are stored at −20° C.).
At the end of the incubation, controls are defrosted in ice and transferred in the incubated plates for LC-MS/MS analysis with a non GLP-validated method. For the analysis, plasma proteins from a 10 μL incubated plates are precipitated with an excess of methanol containing the internal standard, LPA 17:0. After centrifugation, the corresponding supernatant is injected on a C18 column. Analytes are eluted out of the column under isocratic conditions. An API5500 QTRAP mass spectrometer (ABSciex™) is used for the detection of LPA 18:2. No calibration curve is prepared for LPA 18:2, however relative quantities are evaluated based on the peak area.

A further experiment has as its system LPA 18:2 in rat plasma. The experiment in a line: Rat whole blood (plasma) LPA assay. It is filed as biochemical. Conditions: 2 h at 37 C, LPA 18:2 by LC-MS/MS. In short, it runs like this:
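Heparinised rat plasma spiked with compound (1% DMSO final), incubated 2 h at 37 °C, 5% CO2 with shaking; controls kept at −20 °C. After methanol precipitation with LPA 17:0 internal standard, LPA 18:2 measured by LC-MS/MS (C18, isocratic), relative quantities from peak area without calibration.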

The subject of experiment [3] is TS-induced pulmonary inflammation, cells in BALF. The experiment is described as follows: Tobacco smoke (TS) model, lungs inflammatory cells recruitment. It is filed as in vivo, female C57BL/6J mice. The note with it: days 6 to 11, TS-exposed mice. How it is done: The aim of this experiment is to evaluate the efficacy and potency of a test compound administered p.o., once or twice daily on days 6 to 11, vs reference compounds, on pulmonary inflammation induced by 11 days of TS-exposure in female C57BL/6J mice, by assessing the effect of a test compound on the tobacco smoke induced recruitment of inflammatory cells to the lungs.
The test compounds are formulated in PEG200/0.5% methylcellulose (25/75, v/v) and are given at a dose volume of 10 mL/kg. Roflumilast and Dexamethasone are included as positive […] control, respectively. Each treatment group consists of 10 mice.
A first group of mice is subjected to daily TS-exposure for 5 consecutive days and sacrificed on the day 6, 24 h after the final TS-exposure.
A second group is exposed to air for 5 consecutive days (sham exposure) and sacrificed on the day 6, 24 h after the final air-exposure.
Compound and reference-treated groups are subjected to daily TS-exposure for 11 consecutive days and sacrificed on the day 12, 24 h after the final TS-exposure. Mice are dosed p.o. on days 6 to 11, twice daily, 1 h prior to and 6 h after each TS-exposure, with either vehicle, or the test compound at 3, 5, 10 or 30 mg/kg. Another group is dosed p.o. on days 6 to 11, once daily, 1 h prior to each TS-exposure, with either vehicle, or the test compound at 10 mg/kg.
An additional group is dosed p.o., once daily, on days 6 to 11, with roflumilast at 5 mg/kg, 1 h prior to each TS-exposure. Dexamethasone is dosed p.o., twice daily, on days 6 to 11, at 0.3 mg/kg, 1 h prior to and 6 h after each TS-exposure.
For each mouse, a BAL is performed using 0.4 mL of PBS. The lavage fluid is centrifuged, the supernatant removed and the resulting cell pellet re-suspended for total cell counts and cytospin slide preparation. […]
The lungs are dissected out and the left lobes are removed, snap-frozen and stored at −80° C. […] Cell data are presented as individual data points for each animal and the mean value calculated for each group. […]
Percentage inhibitions for the cell data are calculated using the formula below: […]

The record followed here is patent US9670204B2, “Compounds and pharmaceutical compositions thereof for the treatment of inflammatory disorders” (Galapagos NV, priority 2013, dated 2017).

The IC50 is the concentration that inhibits the measured activity by half. In the case of `CCc1nc2ccc(C3CCN(CC(=O)N4CC(O)C4)CC3)cn2c1N(C)c1nc(-c2ccc(F)cc2)cs1` [Compound 110, 2-(4-(2-ethyl-3-((4-(4-fluorophenyl)thiazol-2-yl)(methyl)amino)imidazo[1,2-a]pyridin-6-yl)piperidin-1-yl)-(3-hydroxyazetidin-1-yl)ethanone], the concentration for half-maximal inhibition (IC50) at hENPP2 [1] was 100 to 500 nM; at hENPP2 [2], 0.01 to 100 nM; with LPA 18:2 in human plasma it was over 1000 nM; with LPA 18:2 in rat plasma, over 1000 nM.
As for `CCc1nc2ccc(C3CCN(S(C)(=O)=O)CC3)cn2c1N(C)c1nc(-c2ccc(F)cc2)cs1` [Compound 80, N-(2-ethyl-6-(1-(methylsulfonyl)piperidin-4-yl)imidazo[1,2-a]pyridin-3-yl)-4-(4-fluorophenyl)-N-methylthiazol-2-amine], the IC50 was 500 to 1000 nM against hENPP2 [1], 0.01 to 100 nM on hENPP2 [2], over 1000 nM in the experiment with LPA 18:2 in human plasma and 500 to 1000 nM in the experiment on LPA 18:2 in rat plasma.
As to `CCc1nc2c(F)cc(N3CCN(CC(=O)N4CC(O)C4)CC3)cn2c1N(C)c1nc(-c2ccc(F)cc2)c(C#N)s1` [Compound 12, 2-((2-ethyl-8-fluoro-6-(4-(2-(3-hydroxyazetidin-1-yl)-2-oxoethyl)piperazin-1-yl)imidazo[1,2-a]pyridin-3-yl)(methyl)amino)-4-(4-fluorophenyl)thiazole-5-carbonitrile], the half-inhibitory concentration (IC50) against hENPP2 [1] lay in the range of 0.01 to 100 nM; on hENPP2 [2], 0.01 to 100 nM; in the experiment with LPA 18:2 in human plasma, 100 to 500 nM; in the experiment on LPA 18:2 in rat plasma, 0.01 to 100 nM. Further, the “number of cells recovered in the BALF, in particular macrophage cells, epithelial cells, and neutrophils” value in experiment [3] (10 mg/kg twice daily p.o.) is recorded as “significantly inhibited”.
Take `CCc1nc2c(C)cc(N3CCN(CC(=O)N4CC(O)C4)CC3)cn2c1N(C)c1nc(-c2ccc(F)cc2)c(C#N)s1` [Compound 2, 2-((2-ethyl-6-(4-(2-(3-hydroxyazetidin-1-yl)-2-oxoethyl)piperazin-1-yl)-8-methylimidazo[1,2-a]pyridin-3-yl)(methyl)amino)-4-(4-fluorophenyl) thiazole-5-carbonitrile]: the 50% inhibitory concentration (IC50) was 100 to 500 nM with LPA 18:2 in human plasma and 500 to 1000 nM in the experiment with LPA 18:2 in rat plasma. The “number of cells recovered in the BALF, in particular macrophage cells, epithelial cells, and neutrophils” value in experiment [3] (3 mg/kg twice daily p.o.) and in experiment [3] (10 mg/kg twice daily p.o.) was “significantly inhibited” throughout.
